{
  "source": "paper PMC9448386",
  "about": "“Discovery of novel conjugates of quinoline and thiazolidinone urea as potential anti-colorectal cancer agent” (Journal of Enzyme Inhibition and Medicinal Chemistry, 2022)",
  "type_in_all_cases": "biochemical",
  "key": {"c-Src": {"target": "c-Src (Homo sapiens, UniProt P12931)", "test": "Mobility shift assay, c-Src", "settings": "mean of two independent experiments, SD shown", "description": "(§1) Kinase inhibitory activity against HGFR, MST1R, ABL, PDGFRβ, AXL, FLT3, RET, c-Src, and VEGFR-2 was evaluated by the mobility shift assay. Detailed operation could be found in our previous research."}, "MST1R": {"target": "MST1R (Homo sapiens, UniProt Q04912)", "sequence (Q04912 25-1400)": "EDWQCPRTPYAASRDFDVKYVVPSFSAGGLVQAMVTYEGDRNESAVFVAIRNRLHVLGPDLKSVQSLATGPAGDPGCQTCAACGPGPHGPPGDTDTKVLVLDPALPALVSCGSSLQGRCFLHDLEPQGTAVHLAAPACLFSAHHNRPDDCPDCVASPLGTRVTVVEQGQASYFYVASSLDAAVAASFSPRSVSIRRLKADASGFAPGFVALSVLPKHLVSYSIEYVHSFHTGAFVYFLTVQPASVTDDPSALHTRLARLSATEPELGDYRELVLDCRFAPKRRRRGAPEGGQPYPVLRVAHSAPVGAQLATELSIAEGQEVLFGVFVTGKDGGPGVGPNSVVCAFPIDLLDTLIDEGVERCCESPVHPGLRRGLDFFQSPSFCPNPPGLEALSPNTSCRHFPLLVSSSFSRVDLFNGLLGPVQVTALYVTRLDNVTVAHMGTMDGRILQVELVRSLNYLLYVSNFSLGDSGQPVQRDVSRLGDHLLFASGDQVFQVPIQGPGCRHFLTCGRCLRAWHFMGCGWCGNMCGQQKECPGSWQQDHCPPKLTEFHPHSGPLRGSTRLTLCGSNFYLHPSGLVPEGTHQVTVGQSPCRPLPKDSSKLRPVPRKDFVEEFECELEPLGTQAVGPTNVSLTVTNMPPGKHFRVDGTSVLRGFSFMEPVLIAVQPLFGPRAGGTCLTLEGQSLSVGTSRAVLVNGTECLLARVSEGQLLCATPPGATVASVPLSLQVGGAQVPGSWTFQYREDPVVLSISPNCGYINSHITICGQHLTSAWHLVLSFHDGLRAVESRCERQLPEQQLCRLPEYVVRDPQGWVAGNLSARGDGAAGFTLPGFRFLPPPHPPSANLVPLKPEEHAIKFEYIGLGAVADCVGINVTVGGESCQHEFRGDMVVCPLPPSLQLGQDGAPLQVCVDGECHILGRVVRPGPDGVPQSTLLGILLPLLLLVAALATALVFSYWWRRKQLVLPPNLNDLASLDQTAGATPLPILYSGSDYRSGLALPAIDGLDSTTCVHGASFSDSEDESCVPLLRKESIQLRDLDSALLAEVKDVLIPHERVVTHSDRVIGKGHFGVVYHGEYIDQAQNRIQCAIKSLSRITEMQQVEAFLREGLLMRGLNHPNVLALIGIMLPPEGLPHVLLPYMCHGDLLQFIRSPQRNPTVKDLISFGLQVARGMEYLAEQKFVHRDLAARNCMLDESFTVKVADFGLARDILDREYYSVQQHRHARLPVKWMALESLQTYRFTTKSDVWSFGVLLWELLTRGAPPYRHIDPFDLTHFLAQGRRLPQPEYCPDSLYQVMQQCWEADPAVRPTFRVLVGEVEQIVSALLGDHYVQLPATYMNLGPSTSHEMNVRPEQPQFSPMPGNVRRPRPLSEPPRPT", "test": "Mobility shift assay, MST1R kinase inhibition", "settings": "mean of two independent experiments", "description": "as §1"}, "ABL": {"target": "ABL (Homo sapiens, UniProt P00519)", "sequence (P00519 whole entry)": "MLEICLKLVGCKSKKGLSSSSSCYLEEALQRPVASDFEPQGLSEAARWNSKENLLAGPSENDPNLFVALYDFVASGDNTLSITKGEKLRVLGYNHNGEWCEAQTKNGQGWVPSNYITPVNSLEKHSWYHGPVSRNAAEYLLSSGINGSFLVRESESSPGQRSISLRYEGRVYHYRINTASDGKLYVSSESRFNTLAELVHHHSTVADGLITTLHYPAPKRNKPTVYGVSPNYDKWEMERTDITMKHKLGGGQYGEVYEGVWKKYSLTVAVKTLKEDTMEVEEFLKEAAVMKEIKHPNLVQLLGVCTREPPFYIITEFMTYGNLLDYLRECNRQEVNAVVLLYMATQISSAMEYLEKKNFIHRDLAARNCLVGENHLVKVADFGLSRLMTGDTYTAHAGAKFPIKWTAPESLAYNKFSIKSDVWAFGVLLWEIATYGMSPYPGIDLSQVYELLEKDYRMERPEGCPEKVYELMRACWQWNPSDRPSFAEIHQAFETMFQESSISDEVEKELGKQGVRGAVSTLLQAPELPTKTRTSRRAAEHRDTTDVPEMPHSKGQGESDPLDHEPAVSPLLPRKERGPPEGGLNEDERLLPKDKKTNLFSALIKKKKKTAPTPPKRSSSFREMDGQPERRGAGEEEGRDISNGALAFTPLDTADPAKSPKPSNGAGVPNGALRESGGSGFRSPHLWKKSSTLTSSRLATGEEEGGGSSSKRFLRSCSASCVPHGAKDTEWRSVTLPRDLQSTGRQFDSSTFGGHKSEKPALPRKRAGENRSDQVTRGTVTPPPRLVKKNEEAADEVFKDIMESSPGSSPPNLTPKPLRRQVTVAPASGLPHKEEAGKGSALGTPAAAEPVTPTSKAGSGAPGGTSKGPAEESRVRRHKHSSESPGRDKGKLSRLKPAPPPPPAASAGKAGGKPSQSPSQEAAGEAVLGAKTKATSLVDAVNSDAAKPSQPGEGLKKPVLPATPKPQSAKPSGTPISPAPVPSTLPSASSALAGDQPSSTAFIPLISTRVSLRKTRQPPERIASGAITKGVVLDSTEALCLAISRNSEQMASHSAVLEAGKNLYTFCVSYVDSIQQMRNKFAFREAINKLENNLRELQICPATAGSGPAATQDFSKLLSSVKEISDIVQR", "test": "Mobility shift assay, ABL", "settings": "mean of two independent experiments, SD shown", "description": "as §1"}, "PDGFRβ": {"target": "PDGFRβ (Homo sapiens, UniProt P09619)", "sequence (P09619 33-1106)": "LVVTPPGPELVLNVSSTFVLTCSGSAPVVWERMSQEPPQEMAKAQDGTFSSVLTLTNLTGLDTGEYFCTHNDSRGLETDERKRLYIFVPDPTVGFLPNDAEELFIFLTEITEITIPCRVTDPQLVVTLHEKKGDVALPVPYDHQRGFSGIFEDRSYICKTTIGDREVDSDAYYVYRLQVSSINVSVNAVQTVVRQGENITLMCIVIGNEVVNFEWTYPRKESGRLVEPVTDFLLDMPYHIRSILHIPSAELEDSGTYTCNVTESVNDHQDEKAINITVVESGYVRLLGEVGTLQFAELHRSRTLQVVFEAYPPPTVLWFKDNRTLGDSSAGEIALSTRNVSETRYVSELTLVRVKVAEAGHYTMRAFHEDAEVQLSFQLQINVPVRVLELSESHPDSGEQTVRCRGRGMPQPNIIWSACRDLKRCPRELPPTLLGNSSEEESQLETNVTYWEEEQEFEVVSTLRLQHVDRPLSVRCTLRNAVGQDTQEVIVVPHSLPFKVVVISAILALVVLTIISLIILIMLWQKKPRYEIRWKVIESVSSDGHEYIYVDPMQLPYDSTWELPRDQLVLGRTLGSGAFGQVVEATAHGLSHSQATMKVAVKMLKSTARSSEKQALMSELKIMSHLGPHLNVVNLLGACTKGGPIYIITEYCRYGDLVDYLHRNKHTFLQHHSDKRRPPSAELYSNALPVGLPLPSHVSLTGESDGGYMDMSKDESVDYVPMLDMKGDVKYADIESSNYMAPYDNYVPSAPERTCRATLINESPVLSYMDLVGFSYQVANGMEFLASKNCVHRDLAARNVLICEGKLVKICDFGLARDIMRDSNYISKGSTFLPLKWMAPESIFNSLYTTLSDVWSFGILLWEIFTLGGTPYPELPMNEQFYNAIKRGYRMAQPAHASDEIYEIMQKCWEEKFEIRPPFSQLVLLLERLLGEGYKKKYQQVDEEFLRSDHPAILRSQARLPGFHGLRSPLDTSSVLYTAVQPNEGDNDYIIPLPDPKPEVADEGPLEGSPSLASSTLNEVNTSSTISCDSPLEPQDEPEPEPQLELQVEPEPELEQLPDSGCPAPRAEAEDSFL", "test": "Mobility shift assay, PDGFRβ", "settings": "mean of two independent experiments, SD shown", "description": "as §1"}, "HGFR": {"target": "HGFR (Homo sapiens, UniProt P08581)", "sequence (P08581 25-1390)": "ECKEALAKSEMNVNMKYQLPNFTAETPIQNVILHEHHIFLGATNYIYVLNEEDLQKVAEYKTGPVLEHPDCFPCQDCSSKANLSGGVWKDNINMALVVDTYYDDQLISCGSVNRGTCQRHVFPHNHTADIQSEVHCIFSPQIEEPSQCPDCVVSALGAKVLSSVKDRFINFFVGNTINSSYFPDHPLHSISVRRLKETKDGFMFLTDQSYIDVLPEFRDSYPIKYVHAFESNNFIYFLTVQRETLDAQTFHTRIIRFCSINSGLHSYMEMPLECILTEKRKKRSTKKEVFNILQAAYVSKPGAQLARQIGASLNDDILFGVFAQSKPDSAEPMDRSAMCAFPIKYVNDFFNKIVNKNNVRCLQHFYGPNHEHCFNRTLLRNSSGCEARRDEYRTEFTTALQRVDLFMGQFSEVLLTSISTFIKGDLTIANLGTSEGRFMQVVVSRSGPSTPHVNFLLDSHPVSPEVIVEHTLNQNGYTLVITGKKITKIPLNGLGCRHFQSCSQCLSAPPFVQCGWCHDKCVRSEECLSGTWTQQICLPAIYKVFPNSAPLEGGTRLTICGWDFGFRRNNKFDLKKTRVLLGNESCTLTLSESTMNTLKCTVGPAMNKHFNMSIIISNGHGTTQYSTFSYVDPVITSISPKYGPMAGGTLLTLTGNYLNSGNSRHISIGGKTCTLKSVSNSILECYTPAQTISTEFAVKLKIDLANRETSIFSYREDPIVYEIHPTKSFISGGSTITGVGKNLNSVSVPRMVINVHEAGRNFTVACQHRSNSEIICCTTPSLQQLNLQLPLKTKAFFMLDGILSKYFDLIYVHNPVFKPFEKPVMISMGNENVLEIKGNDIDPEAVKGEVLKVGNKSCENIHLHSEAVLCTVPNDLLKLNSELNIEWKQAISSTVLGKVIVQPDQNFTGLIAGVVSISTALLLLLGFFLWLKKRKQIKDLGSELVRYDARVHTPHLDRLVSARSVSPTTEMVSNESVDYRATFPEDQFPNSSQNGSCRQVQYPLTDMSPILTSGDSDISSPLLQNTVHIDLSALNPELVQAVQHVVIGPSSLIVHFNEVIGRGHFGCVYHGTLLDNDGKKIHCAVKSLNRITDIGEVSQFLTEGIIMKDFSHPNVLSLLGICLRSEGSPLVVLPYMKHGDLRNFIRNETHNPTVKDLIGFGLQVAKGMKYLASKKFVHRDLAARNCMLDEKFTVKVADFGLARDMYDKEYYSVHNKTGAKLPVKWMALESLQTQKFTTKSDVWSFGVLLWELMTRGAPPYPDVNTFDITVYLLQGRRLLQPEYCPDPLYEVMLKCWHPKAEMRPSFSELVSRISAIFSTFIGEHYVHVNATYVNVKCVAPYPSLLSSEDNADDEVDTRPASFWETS", "test": "Mobility shift assay, HGFR kinase inhibition", "settings": "mean of two independent experiments", "description": "as §1"}, "FLT3": {"target": "T1, FLT3 (Homo sapiens, UniProt P36888)", "T1 sequence (P36888 27-993)": "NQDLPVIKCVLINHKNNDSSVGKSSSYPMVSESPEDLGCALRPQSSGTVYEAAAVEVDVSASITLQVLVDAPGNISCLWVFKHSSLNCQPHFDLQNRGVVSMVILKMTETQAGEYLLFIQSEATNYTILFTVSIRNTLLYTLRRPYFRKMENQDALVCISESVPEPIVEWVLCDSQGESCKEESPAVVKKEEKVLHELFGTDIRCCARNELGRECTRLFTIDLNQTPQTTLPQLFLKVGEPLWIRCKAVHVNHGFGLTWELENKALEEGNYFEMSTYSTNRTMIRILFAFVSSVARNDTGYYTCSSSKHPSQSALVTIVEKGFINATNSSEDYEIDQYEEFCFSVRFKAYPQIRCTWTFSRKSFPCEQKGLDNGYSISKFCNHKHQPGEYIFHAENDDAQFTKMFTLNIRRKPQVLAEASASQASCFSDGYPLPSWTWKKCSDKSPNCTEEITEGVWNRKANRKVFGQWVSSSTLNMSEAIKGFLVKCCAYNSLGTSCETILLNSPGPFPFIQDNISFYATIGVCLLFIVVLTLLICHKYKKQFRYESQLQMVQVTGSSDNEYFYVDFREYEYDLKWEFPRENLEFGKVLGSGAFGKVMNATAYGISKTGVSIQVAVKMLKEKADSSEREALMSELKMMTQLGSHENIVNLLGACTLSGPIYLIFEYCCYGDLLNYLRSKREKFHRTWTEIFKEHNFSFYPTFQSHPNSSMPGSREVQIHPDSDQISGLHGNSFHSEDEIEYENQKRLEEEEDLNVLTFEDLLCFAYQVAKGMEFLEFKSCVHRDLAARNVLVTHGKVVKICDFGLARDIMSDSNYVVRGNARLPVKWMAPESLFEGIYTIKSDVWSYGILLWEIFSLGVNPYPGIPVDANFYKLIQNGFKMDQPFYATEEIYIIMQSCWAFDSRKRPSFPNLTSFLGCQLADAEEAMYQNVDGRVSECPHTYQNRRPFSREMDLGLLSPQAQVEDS", "test": "Mobility shift assay, FLT3", "settings": "mean of two independent experiments, SD shown", "description": "as §1"}},
  "data": [
    {"molecule": "COc1cc2c(Oc3ccc(NC(=O)NN4C(=O)CSC4c4c(F)cccc4F)cc3F)ccnc2cc1OC1CCN(CC(N)=O)CC1", "note": "(stereo not drawn) [Compound 10a, 2–(4-((4–(4-(3–(2-(2,6-Difluorophenyl)-4-oxothiazolidin-3-yl)ureido)-2-fluorophenoxy)-6-methoxyquinolin-7-yl)oxy)piperidin-1-yl)acetamide]", "values": [
      {"measurement": "IC50", "setting": "c-Src", "result": "420 ± 35", "unit": "nM"},
      {"measurement": "IC50", "setting": "MST1R", "result": 45, "unit": "nM"},
      {"measurement": "IC50", "setting": "ABL", "result": "1680 ± 130", "unit": "nM"},
      {"measurement": "IC50", "setting": "PDGFRβ", "result": "1130 ± 120", "unit": "nM"},
      {"measurement": "IC50", "setting": "HGFR", "result": 110, "unit": "nM"},
      {"measurement": "IC50", "setting": "FLT3", "result": "6930 ± 730", "unit": "nM"}
    ]}
  ]
}
